Test system: corn fall armyworm (FAW) (Spodoptera frugiperda)
Test: Field trials, insecticide plus ortho silicic acid against corn fall armyworm
Format: in vivo
Design: concentration or dose not given beside the values

## CNC(=O)c1cc(Cl)cc(C)c1NC(=O)c1cc(Br)nn1-c1ncccc1Cl [CTPR, Chlorantraniliprole]
A01 = 1 day after first spray
  Percent Control (%): 67.6%
B07 = 7 days after 2nd spray
  Percent Control (%): 86.8%
B10, after 2nd application
  Percent Control (%): 88.9%
B21, after 2nd application
  Percent Control (%): 87%

## O=C(NC(=O)c1c(F)cccc1F)Nc1ccc(OC(F)(F)C(F)OC(F)(F)F)c(Cl)c1 (stereo not drawn) [Novaluron]
A01 = 1 day after first spray
  Percent Control (%): 60.5%
B07 = 7 days after 2nd spray
  Percent Control (%): 88.8%
B10, after 2nd application
  Percent Control (%): 88.9%
B21, after 2nd application
  Percent Control (%): 84.7%

## Orthosilicic acid [OSA]
A01 = 1 day after first spray
  Percent Control (%): 32.4%
B07 = 7 days after 2nd spray
  Percent Control (%): 58.6%
B10, after 2nd application
  Percent Control (%): 60.6%
B21, after 2nd application
  Percent Control (%): 59%

Source: patent US20230320360A1, “FORMULATIONS AND METHODS FOR REGULATING AND STIMULATING PLANT GROWTH” (priority 2020, published 2023)
